Data as given in the supplement of paper PMC10307832.

Experiments:
Test in all cases: relative viability (nuclei count vs DMSO), 5 days (fraction); higher = more cells survive
[1] = compound: N=C1NC(=O)/C(=C/c2ccc(O)cc2)S1 [Mirin] + Cc1nc(Nc2ncc(C(=O)Nc3c(C)cccc3Cl)s2)cc(N2CCN(CCO)CC2)n1 [Dasatinib] (partner 0.075 µM)
Procedure, shortened: (§1)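 Dosing by pin tool came one day after lung cancer cell lines were seeded in 1536-well plates, using either one drug or a fixed anchor-drug dose plus five library-drug doses (not always all listed) in √10 steps. After 5 days, nuclei were counted on 4× images. Relative viability is treated-well nuclei count divided by vehicle-well nuclei count, and values are medians of duplicate plates.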

[2] = compound: CCn1c(-c2nonc2N)nc2cnc(Oc3cccc(NC(=O)c4ccc(OCCN5CCOCC5)cc4)c3)cc21 + CC(=O)Nc1cccc(-n2c(=O)n(C3CC3)c(=O)c3c(Nc4ccc(I)cc4F)n(C)c(=O)c(C)c32)c1 [Trametinib] (partner 0.02 µM)
Procedure, shortened: as §1

[3] = compound: CCC1=CN=CN=C1N2CCN(CC2)CC3=NC4=C(N3)C=C(C=C4)C(F)(F)F + Cc1cc(Nc2cc(N3CCN(C)CC3)nc(Sc3ccc(NC(=O)C4CC4)cc3)n2)n[nH]1 [Tozasertib] (partner 0.1 µM)
Procedure, shortened: as §1

[4] = compound: CCn1c(-c2nonc2N)nc2cnc(Oc3cccc(NC(=O)c4ccc(OCCN5CCOCC5)cc4)c3)cc21 + Nc1nc2[nH]cc(CCc3ccc(C(=O)N[C@@H](CCC(=O)O)C(=O)O)cc3)c2c(=O)[nH]1 [Pemetrexed] (partner 0.2 µM)
Procedure, shortened: as §1

Cell Line | relative viability ([1]; first compound 0.25 µM) | relative viability ([1]; first compound 0.7906 µM) | relative viability ([1]; first compound 2.5 µM) | relative viability ([1]; first compound 7.906 µM) | relative viability ([1]; first compound 25 µM) | relative viability ([2]; first compound 0.04 µM) | relative viability ([2]; first compound 0.1265 µM) | relative viability ([2]; first compound 0.4 µM) | relative viability ([2]; first compound 1.265 µM) | relative viability ([2]; first compound 4 µM) | relative viability ([3]; first compound 0.04 µM) | relative viability ([3]; first compound 0.1265 µM) | relative viability ([3]; first compound 0.4 µM) | relative viability ([3]; first compound 1.265 µM) | relative viability ([3]; first compound 4 µM) | relative viability ([4]; first compound 0.04 µM) | relative viability ([4]; first compound 0.1265 µM) | relative viability ([4]; first compound 0.4 µM) | relative viability ([4]; first compound 1.265 µM) | relative viability ([4]; first compound 4 µM)
201T | 0.595 | 0.636 | 0.545 | 0.474 | 0.598 | 0.719 | 0.706 | 0.749 | 0.697 | 0.698 | 0.923 | 0.936 | 0.9 | 0.846 | 0.919 | 0.356 | 0.347 | 0.343 | 0.263 | 0.303
A-427 | 0.766 | – | 0.78 | 0.714 | 0.632 | 0.879 | 0.839 | 0.727 | 0.381 | 0.373 | 0.209 | 0.218 | 0.21 | 0.174 | 0.177 | 0.876 | 0.708 | 0.529 | 0.228 | 0.318
ABC-1 | 0.682 | 0.525 | 0.62 | 0.536 | 0.375 | – | – | – | – | – | 0.176 | 0.172 | 0.172 | 0.152 | 0.196 | – | – | – | – | –
BEN | 0.321 | 0.315 | 0.308 | 0.305 | 0.246 | 0.955 | 0.972 | 0.702 | 0.518 | 0.521 | 0.462 | 0.528 | 0.559 | 0.433 | 0.477 | 0.725 | 0.647 | 0.395 | 0.412 | 0.534
CAL-12T | 0.489 | – | 0.503 | 0.347 | 0.28 | 0.354 | 0.363 | 0.372 | 0.346 | 0.345 | 0.367 | 0.294 | 0.328 | 0.429 | 0.289 | 1.81 | 1.38 | 1.39 | 1.04 | 0.996
COR-L23 | 0.55 | 0.563 | 0.534 | 0.553 | 0.524 | 0.647 | 0.517 | 0.248 | 0.192 | 0.16 | 0.219 | 0.207 | 0.201 | 0.157 | 0.183 | 0.211 | 0.19 | 0.194 | 0.164 | 0.123
COR-L 105 | 0.347 | 0.328 | 0.382 | 0.288 | 0.261 | 0.343 | 0.42 | 0.365 | 0.319 | 0.376 | 0.374 | 0.34 | 0.327 | 0.395 | 0.379 | 1.13 | 0.965 | 1.09 | 0.615 | 0.507
ChaGo-K-1 | 0.504 | 0.575 | 0.541 | 0.542 | 0.39 | 1.06 | 0.928 | 0.844 | 0.89 | 0.866 | 0.206 | 0.256 | 0.233 | 0.195 | 0.224 | 0.263 | 0.25 | 0.238 | 0.235 | 0.239
EKVX | 0.671 | – | 0.565 | 0.494 | 0.564 | 0.411 | 0.389 | 0.404 | 0.371 | 0.415 | 0.477 | 0.367 | 0.346 | – | 0.445 | 0.516 | 0.371 | 0.346 | 0.359 | 0.313
EMC-BAC-2 | 0.328 | 0.324 | 0.349 | 0.271 | 0.249 | 0.905 | 0.922 | 0.826 | 0.401 | 0.445 | 0.293 | 0.3 | 0.279 | – | 0.268 | 0.419 | 0.377 | 0.298 | 0.298 | 0.311
EPLC-272H | 0.416 | – | 0.413 | 0.301 | 0.232 | 0.365 | 0.347 | 0.256 | 0.213 | 0.197 | 0.257 | 0.225 | 0.262 | 0.327 | 0.332 | 0.392 | 0.328 | 0.253 | 0.239 | 0.119
H3255 | 0.383 | 0.315 | 0.347 | 0.275 | 0.381 | 0.671 | 0.676 | 0.577 | 0.442 | 0.579 | 0.63 | 0.413 | 0.674 | 0.436 | 0.715 | 0.528 | 0.512 | 0.503 | 0.432 | 0.431
HARA | 0.194 | – | 0.222 | 0.247 | 0.195 | 0.494 | 0.874 | 0.687 | 0.333 | 0.254 | 0.106 | 0.108 | 0.0892 | – | 0.0831 | 0.211 | 0.233 | 0.205 | 0.181 | 0.212
HCC-15 | 0.608 | 0.655 | 0.599 | 0.632 | 0.404 | 0.38 | 0.36 | 0.348 | 0.39 | 0.378 | 0.444 | 0.357 | 0.381 | 0.449 | 0.391 | 0.229 | 0.214 | 0.217 | 0.197 | 0.205
HCC-44 | – | – | – | – | – | 1.06 | 1.12 | 1.04 | 1.05 | 1.03 | 0.955 | 0.962 | 0.905 | 0.597 | 1.06 | 0.62 | 0.652 | 0.547 | 0.678 | 0.425
HCC-78 | 0.361 | 0.283 | 0.577 | 0.374 | 0.31 | 0.796 | 0.469 | – | 0.847 | 1.06 | 0.572 | 0.549 | 0.446 | 0.434 | 0.376 | 0.959 | 0.847 | – | 0.929 | 0.951
HCC-366 | 0.677 | – | 0.624 | 0.588 | 0.486 | 0.335 | 0.334 | 0.322 | 0.0755 | 0.0555 | 0.138 | 0.148 | 0.131 | 0.143 | 0.0757 | 0.166 | 0.173 | 0.131 | 0.0447 | 0.0523
HCC-827 | 0.407 | 0.336 | 0.301 | 0.451 | 0.334 | 0.586 | 0.662 | 0.683 | 0.573 | 0.689 | 0.441 | 0.409 | 0.397 | – | 0.435 | 0.27 | 0.261 | 0.266 | 0.267 | 0.285
HOP-62 | 0.699 | 0.756 | 0.743 | 0.671 | 0.56 | 0.381 | 0.361 | 0.371 | 0.301 | 0.314 | 0.43 | 0.362 | 0.39 | 0.381 | 0.39 | 0.319 | 0.309 | 0.284 | 0.228 | 0.252
LC-2-ad | 0.588 | 0.504 | 0.668 | 0.386 | 0.368 | 0.991 | 0.952 | 0.983 | 0.712 | 0.623 | 0.442 | 0.497 | 0.424 | 0.406 | 0.413 | 0.257 | 0.269 | 0.241 | 0.199 | 0.206
LCLC-97TM1 | 0.773 | 0.816 | 0.868 | 0.737 | 0.765 | 0.257 | 0.192 | – | 0.197 | 0.19 | 0.209 | 0.196 | 0.234 | 0.207 | 0.205 | 0.228 | 0.196 | – | 0.192 | 0.18
LCLC-103H | 0.44 | 0.469 | 0.491 | 0.348 | 0.422 | 0.651 | 0.737 | 0.655 | 0.638 | 0.639 | 0.536 | 0.504 | 0.488 | 0.463 | 0.398 | 0.394 | 0.444 | 0.36 | 0.345 | 0.419
LK-2 | 0.275 | – | 0.272 | 0.194 | 0.178 | 0.753 | 0.969 | 0.65 | 0.666 | 0.899 | 0.157 | 0.193 | 0.171 | 0.193 | 0.166 | 0.308 | 0.354 | 0.151 | 0.139 | 0.265
LOU-NH91 | 0.549 | 0.564 | 0.535 | 0.477 | 0.65 | 0.751 | 0.697 | 0.617 | 0.543 | 0.487 | 0.625 | 0.68 | 0.669 | 0.585 | 0.657 | 0.371 | 0.355 | 0.355 | 0.288 | 0.356
LU99A | 0.574 | 0.564 | 0.509 | 0.423 | 0.531 | 0.569 | 0.595 | 0.567 | 0.584 | 0.497 | 0.268 | 0.281 | 0.282 | 0.278 | 0.297 | 0.227 | 0.167 | 0.168 | 0.163 | 0.158
NCI-H727 | 0.345 | 0.285 | 0.337 | 0.4 | 0.256 | – | 0.392 | 0.386 | 0.461 | 0.423 | 0.646 | 0.621 | 0.648 | 0.42 | 0.619 | – | – | – | – | –
NCI-H1563 | 0.536 | 0.471 | 0.481 | 0.42 | 0.428 | – | – | – | – | – | – | – | – | – | – | 0.82 | 0.769 | 0.694 | 0.595 | 0.734
NCI-H1623 | 0.46 | 0.426 | 0.542 | 0.44 | 0.497 | – | – | – | – | – | 0.368 | 0.422 | 0.38 | 0.423 | 0.425 | – | – | – | – | –
NCI-H1648 | – | – | – | – | – | 0.511 | 0.431 | 0.576 | 0.779 | 0.705 | 0.538 | 0.429 | – | 0.362 | 0.345 | 1.01 | 1.13 | 0.828 | 0.964 | 0.78
NCI-H1792 | 0.768 | 0.86 | 0.777 | – | 0.632 | 0.425 | 0.47 | 0.401 | 0.354 | 0.302 | – | – | – | – | – | 0.972 | 0.724 | 0.228 | 0.274 | 0.449
